# Reference: US12049452B2, “Olaparib hydroxybenzoic acid cocrystals and their pharmaceutical use” (NUFORMIX TECHNOLOGIES LIMITED, priority 2021, dated 2024)
# Assays:
# [1] = Solid-state stability study under accelerated storage conditions (XRPD form change, HPLC purity); assay type: physicochemical; conditions: 7 days; for Purity: HPLC
# Method: Bruker D8 X-Ray Powder Diffraction (XRPD) Characterization: X-ray powder diffraction patterns for the samples were acquired on a Bruker D8 diffractometer using Cu Ka radiation (40 kV, 40 mA) and a θ-2θ goniometer fitted with a Ge monochromator. The incident beam passes through a 2.0 mm divergence slit followed by a 0.2 mm anti-scatter slit and knife edge. The diffracted beam passes through an 8.0 mm receiving slit with 2.5° Soller slits followed by the Lynxeye Detector. The software used for data collection and analysis was Diffrac Plus XRD Commander and Diffrac Plus EVA respectively. Samples were run under ambient conditions over an angular range of 2° to 42° 2θ (using a step size of 0.05° 2θ and a step time of 0.5 seconds) as flat plate specimens using powder as received. The sample was prepared on a polished, zero-background (510) silicon wafer by gently pressing onto the flat surface or packed into a cut cavity. The sample was rotated in its own plane. Small D8 disc recess holders were used to prepare samples.
# Chemical Purity Determination by HPLC: Purity analysis was performed on an Agilent HP1100/Infinity II 1260 series system equipped with a diode array detector and using Open LAB software.
# A study was carried out to examine the physical stability of the olaparib hydroxybenzoic acid cocrystals with respect to solid form conversion or signs of decomposition over time under accelerated storage conditions. The 1:1 olaparib gentisic acid cocrystal, 2:1 olaparib gentisic acid cocrystal, 1:1 olaparib 2,4-dihydroxybenzoic acid cocrystal, 2:1 2,4-dihydroxybenzoic acid cocrystal, and the 2:1 olaparib 4-hydroxybenzoic acid cocrystal were separately stored at 40° C./75% relative humidity and 25° C./97% relative humidity for 7 days. After this time, all samples remained as white solids with no signs of deliquescence. Each sample was analysed by XRPD to observe any potential form changes and by HPLC to determine purity so as to determine any signs of decomposition.
# [2] = Gravimetric Vapour Sorption (GVS) moisture sorption isotherm; assay type: physicochemical; conditions: for XRPD analysis of the sample post GVS (cocrystal structure): after GVS isotherm
# Method: Gravimetric Vapour Sorption (GVS): Sorption isotherms were obtained using a SMS DVS Intrinsic moisture sorption analyzer, controlled by DVS Intrinsic Control software. The sample temperature was maintained at 25° C. by the instrument controls. The humidity was controlled by mixing streams of dry and wet nitrogen, with a total flow rate of 200 ml/min. The relative humidity was measured by a calibrated Rotronic probe (dynamic range of 1.0-100% RH), located near the sample. The weight change, (mass relaxation) of the sample as a function of % RH was constantly monitored by a microbalance (accuracy ±0.005 mg).
# Typically, 5-30 mg of sample was placed in a tared mesh stainless steel basket under ambient conditions. The sample was loaded and unloaded at 40% RH and 25° C. (typical room conditions). A moisture sorption isotherm was performed as outlined in Table 1 (2 scans per complete cycle). The standard isotherm was performed at 25° C. at 10% RH intervals over a 0-90% RH range. Typically, a double cycle (4 scans) was carried out. Data analysis was carried out within Microsoft Excel using the DVS Analysis Suite. The sample was recovered after completion of the isotherm and re-analyzed by XRPD.
# [3] = Dissolution study in simulated intestinal fluid (FaSSIF V2), Pion inForm instrument; assay type: physicochemical; conditions: FaSSIF V2 pH 6.5, 37° C.
# Text: As described in US 2018/0113216, the oral bioavailability of olaparib is dependent on both the dissolution rate and overall solubility of the drug in the gastro-intestinal (GI) tract. US 2018/0113216 describes how olaparib has a propensity for efflux by P-gp at concentrations limiting its permeability and thus limiting its absorption from the GI tract. This efflux ratio is lowered as the concentration of drug in solution increases. Thus, to minimize this efflux issue and achieve optimal absorption and bioavailability it is essential to find a form of olaparib that has as high a dissolution rate as possible in the GI tract and that also maintains a high level of solubility over a sufficient period of time to allow the drug to be absorbed into the blood stream. […] The dissolution study was carried out using 50 mL simulated intestinal fluid (FaSSIF V2) at pH 6.5 (37° C.) using a quantity of each olaparib form equivalent to 25 mg olaparib. […] Detection and quantification of olaparib was performed by in-situ UV-spectroscopy using a fibre-optic probe, allowing instantaneous data collection from the point of sample introduction. UV absorption data was converted to mg/mL (±0.2 mg/mL) using a previously determined pH dependent molar extinction coefficients to quantitate the amount of dissolved drug.
# [4] = low solubility and low permeability; cited from earlier work
# [5] = across the 0-90% relative humidity range at 25° C. under nitrogen
smiles,measurement,setting,value
O=C(O)c1ccc(O)cc1O.O=C(c1cc(Cc2n[nH]c(=O)c3ccccc23)ccc1F)N1CCN(C(=O)C2CC2)CC1,XRPD Analysis,[1]; 25° C./97% RH,No change
same,Purity,[1]; 25° C./97% RH,99.22%
same,XRPD Analysis,[1]; 40° C./75 RH,No change
same,Purity,[1]; 40° C./75 RH,99.43%
O=C(O)c1ccc(O)cc1O.O=C(c1cc(Cc2n[nH]c(=O)c3ccccc23)ccc1F)N1CCN(C(=O)C2CC2)CC1.O=C(c1cc(Cc2n[nH]c(=O)c3ccccc23)ccc1F)N1CCN(C(=O)C2CC2)CC1,reversibly absorbed moisture (GVS),[2]; [5],4.5 % w/w
same,XRPD analysis of the sample post GVS (cocrystal structure),[2],unchanged
same,reversibly absorbed moisture (GVS),"[2]; between 0 and 5% RH, 25° C.",2.5 % w/w
same,XRPD Analysis,[1]; 25° C./97% RH,No change
same,Purity,[1]; 25° C./97% RH,99.64%
same,XRPD Analysis,[1]; 40° C./75 RH,No change
same,Purity,[1]; 40° C./75 RH,99.45%
O=C(O)c1ccc(O)cc1.O=C(c1cc(Cc2n[nH]c(=O)c3ccccc23)ccc1F)N1CCN(C(=O)C2CC2)CC1.O=C(c1cc(Cc2n[nH]c(=O)c3ccccc23)ccc1F)N1CCN(C(=O)C2CC2)CC1,reversibly absorbed moisture (GVS),[2]; [5],3.4 % w/w
same,XRPD analysis of the sample post GVS (cocrystal structure),[2],unchanged
same,reversibly absorbed moisture (GVS),"[2]; between 0 and 5% RH, 25° C.",1.5 % w/w
same,XRPD Analysis,[1]; 25° C./97% RH,No change
same,Purity,[1]; 25° C./97% RH,99.69%
same,XRPD Analysis,[1]; 40° C./75 RH,No change
same,Purity,[1]; 40° C./75 RH,99.70%
O=C(O)c1cc(O)ccc1O.O=C(c1cc(Cc2n[nH]c(=O)c3ccccc23)ccc1F)N1CCN(C(=O)C2CC2)CC1 [1:1 olaparib gentisic acid cocrystal],XRPD Analysis,[1]; 25° C./97% RH,No change
same,Purity,[1]; 25° C./97% RH,99.79%
same,XRPD Analysis,[1]; 40° C./75 RH,No change
same,Purity,[1]; 40° C./75 RH,99.70%
O=C(O)c1cc(O)ccc1O.O=C(c1cc(Cc2n[nH]c(=O)c3ccccc23)ccc1F)N1CCN(C(=O)C2CC2)CC1.O=C(c1cc(Cc2n[nH]c(=O)c3ccccc23)ccc1F)N1CCN(C(=O)C2CC2)CC1 [2:1 olaparib gentisic acid cocrystal],reversibly absorbed moisture (GVS),[2]; [5],3.4 % w/w
same,XRPD analysis of the sample post GVS (cocrystal structure),[2],unchanged
same,reversibly absorbed moisture (GVS),"[2]; between 0 and 5% RH, 25° C.",1.6 % w/w
same,XRPD Analysis,[1]; 25° C./97% RH,No change
same,Purity,[1]; 25° C./97% RH,99.64%
same,XRPD Analysis,[1]; 40° C./75 RH,No change
same,Purity,[1]; 40° C./75 RH,99.59%
O=C(c1cc(Cc2n[nH]c(=O)c3ccccc23)ccc1F)N1CCN(C(=O)C2CC2)CC1 [milled olaparib form A],amount of olaparib dissolved after particle size reduction,"[3]; any one timepoint over a 30-minute time period, compared with form A as supplied",overall decrease in the amount of olaparib dissolved
same,rate of dissolution after particle size reduction,[3]; compared with olaparib form A as supplied,lower rate of dissolution
"O=C(c1cc(Cc2n[nH]c(=O)c3ccccc23)ccc1F)N1CCN(C(=O)C2CC2)CC1 [olaparib, 4-[(3-{[4-(cyclopropylcarbonyl)piperazin-1-yl]carbonyl}-4-fluorophenyl)methyl]phthalazin-1(2H)-one]",BCS class,[4],class 4
